The values below come from patent US7034005B2, “Use of agent for suppressing infection and proliferation of human immunodeficiency syndrome virus” (The Kitasato Institute, priority 2002, dated 2006).

Series [1] has as its system HIV-1BAL strain in M type macrophage (M-MΦ) derived from human monocytes. In words: Proliferation of HIV-1 in M-MΦ: p24 protein in culture supernatant by sandwich ELISA. In kind it is cell-based. The conditions noted are these: for suppression of viral generation (p24 in culture supernatant) in M-MΦ: 30 μM, HIV-1BAL, 14 days of culture, compared with DMSO control (FIG. 13); for viral proliferation at 300 μM in M-MΦ: also observed in DMSO control, ascribed to cytotoxicity of DMSO; for concentration dependence of suppressive action on HIV-1BAL in M-MΦ: various concentrations (FIG. 16); for p24 protein in culture supernatant of oligonucleotide pretreated M-MΦ: day 4, 7 and 10 after HIV-1BAL infection, compared with lipofectin control (L) (FIG. 10). How it is done:
(§1) Macrophages derived from monocytes were prepared by culturing the recovered monocytes in the presence of M-CSF (macrophage colony-stimulating factor) (10^4 U/ml, provided by Morinaga Milk Co.), granulocytes and granulocyte-macrophage colony-stimulating factor, GM-CSF) (500 U/ml, provided by Japan Scheling Plough Co., Osaka, or purchased from R & S Genzyme-TECHNE Inc.) with RPMI1640 medium added with FCS10% (Nissui Seiyaku Co., Tokyo) for 7–8 days.
(§2) The macrophage prepared by differential induction of M-CSF from human monocytes is designated as M type macrophage (M type MΦ or M-MΦ) and the macrophage prepared by differential induction of GM-CSF from human monocytes is designated as GM type macrophage (GM type MΦ or GM-MΦ) Further, alveolar macrophage (alveolar MΦ or A-MΦ) was prepared as follows. Cells in the alveolar lavage liquid obtained from the alveolar lavage of healthy volunteers were recovered, suspended and adhered to plastics, then the non-adhered cells were washed out and the remained adhered cells were designated as the alveolar MΦ.
(§3) Infection of HIV-1 to macrophage was performed as follows. Macrophage directed viral strains, HIV-1JR-FL and HIV-1BAL, were infected for 2 hours in contact with M-MΦ, GM-MΦ and A-MΦ (adjusted to 2.5×10^5/well, Flacon No3043: Becton Dickinson Labware, Inc. U.S.)at low concentration (p24 antigen titer 50 ng/ml, TCID50=3000/ml virus to final concentration at 100 pg/ml), and non-adsorbed virus to the macrophage was washed out, and cultured with adding fresh medium. In case of the medium with M-MΦ, M-CSF was added (10^4 U/ml), and that of the medium with GM-MΦ, GM-CSF was added (500 U/ml).
(§4) Proliferation of virus was examined with the released viral particles in the culture supernatant after the infection by the sandwich ELISA using two types of anti-p24 antibody (Nu24 and 10B5^13). The following JAM62 and JAM65 were used as LTR (HIV long terminal repeat)-gap gene primer. The following JAM63 and JAM 64 were used as the internal primer for the nested PCR. • JAM62: • 5′-[…]-3′ (SEQ ID NO: 1) • JAM65: • 5′-[…]-3′ (SEQ ID NO: 2) • JAM63: • 5′-GTGTOACTCTGGTAACTAGAGATCC-3′ (SEQ ID NO: 3) • JAM64: • 5′-[…]-3′ (SEQ ID NO: 4) (1-4) Assay of Expression of Tyrosine Kinase Hck Protein and Transcription Factor C/EBPβ Protein
(§5) In order to show growth suppression effect of the present invention, among macrolide derivatives, EM, EM201, EM202, EM703, CAM, EM722, EM730, EM732, EM736, EM734, EM735, EM747, EM748, EM743, EM746, EM750 or EM751 was dissolved in DMSO with each 100 mM concentration, and used in dilution with the medium thereafter. A control group was M-MΦ treated only with DMSO used for dissolving macrolide derivatives.
(§6) M-MΦ and GM-M Φ were subjected to contact infection with HIV-1BAL strain for 2 hours, added 30 μM of EM, EM201, EM202, EM703, CAM,EM722, EM730, EM732, EM736, EM734, EM735, EM747, EM748, EM743, EM746, EM750 or EM751, incubated for 14 days and amount of p24 protein in the cultured supernatant was assayed in the time-dependent manner.
In general terms: ELISA stands for enzyme-linked immunosorbent assay.

Series [2] has as its system HIV-1BAL strain in GM type macrophage (GM-MΦ) derived from human monocytes. Nature of the series: Proliferation of HIV-1 in GM-MΦ: p24 protein in culture supernatant by sandwich ELISA. In kind it is cell-based. The settings on record: 30 μM, HIV-1BAL, all assay points up to 14 days, similar to DMSO control (FIG. 14). As for the experimental part: as §1, §2, §3, §4, §5, §6

Series [3] deals with HIV-1BAL strain infected M-MΦ. In words: Cytopathy (MGC formation) of HIV-1 infected M-MΦ. It is filed as cell-based, human. The conditions noted are these: 30 μM, HIV-1BAL (FIG. 17). As for the experimental part: Formation of cell cluster and cell fusion was observed from the 2nd day of the incubation only in virus producing M-MΦ and formation of multinucleatic giant cells were recognized from the culture day 4–7 [refer to FIG. 2(A)]. On the other hand, in GM-MΦ without generation of virus, nomorphological changes were observed [refer to FIG. 2(B)].
M-MΦ was subjected to contact infection with HIV-1BAL strain for 2 hours, added 30 μM of EM, EM201, EM202, EM703 or CAM, incubated and observed the cell morphology.

In series [4] the test system is tyrosine kinase Hck protein. Nature of the series: Expression of tyrosine kinase Hck protein in M-MΦ by Western blotting. In kind it is cell-based, human. The conditions noted are these: for expression of tyrosine kinase Hck protein in HIV-1 infected M-MΦ: 30 μM, compared with DMSO control (FIG. 18); for expression of tyrosine kinase Hck protein in HIV-1 infected M-MΦ / expression of tyrosine kinase Hck protein in oligonucleotide pretreated M-MΦ after infection: day 2 after HIV-1BAL infection; for expression of tyrosine kinase Hck protein in oligonucleotide treated M-MΦ before infection: probe 2 μM for 24 hours, further 24 hours incubation, compared with lipofectin control (L) (FIG. 9). From the text: Expression of tyrosine kinase Hck protein and transcription factor C/EBPβ protein in macrophage was examined after solubilizing the macrophage in SDS-PAGE sample buffer, performing 10% SDS-polyacrylamide electrophoresis, transferring the protein on the gel to immobilon P membrane (Millipore Inc. U.S.) and checking antibodies against these proteins by Western blotting. Antibody to tyrosine kinase Hck protein (N-30) and antibody to C/EBPβ (C-19) were purchased from Santacluse Inc. (U.S.). Western blotting was detected by Amersham ELC Regent (Amersham International plc, Buckinghamshire, UK). Strength of bands was expressed by PSL (photostimulating luminescence) value (A/mm^2).
These probes were dissolved in the serum free RPMI1640 medium, in which lipofectin (Life Technology Inc., U.S.) was dissolved at 5 μM concentration, at room temperature for 30 minutes, added with RPMI1640 medium, which contains 10% FCS, to the macrophage (final concentration 2 μM) and incubated at 37° C. for 24 hours. Thereafter, cells were washed with the medium, added the RPMI1640 medium containing 10% FCS without oligonucleotide, further cultured for 24 hours, and then infected with HIV-1.
Consequently, M-MΦ was subjected to contact infection with HIV-1BAL strain for 2 hours, added 30 μM of EM, EM201, EM202, EM703 or CAM, incubated and expression of tyrosine kinase Hck protein was observed on day 2 after the infection by Western blotting.
(In general: Immunoblotting shows a protein as a band on a membrane.)

Another series relates to p38MAPK. Nature of the series: Tyrosine phosphorylation (activation) of p38MAPK in HIV-1 infected M-MΦ by Western blotting. In kind it is cell-based, human. The conditions noted are these: 30 μM, day 2 of culture, HIV-1BAL infected M-MΦ, compared with DMSO (FIG. 19(A)). As for the experimental part: (§7) P38MAPK and ERK1/2 activation were determined using P38MAPK antibody, anti-ERK1/2 antibody, anti-tyrosine phosphorylation P38MAPK antibody and anti-tyrosine phosphorylation ERK1/2 antibody (New England Biolabs, Inc. U.S.), and phosphorylation reaction of these molecules was determined by Western blotting.
Thirty μM of EM, EM201, EM202, EM703 or CAM were added to M-MΦ infected with HIV-1BAL strain, tyrosine phosphorylation of p38MAPK was detected on day 2 of the culture by Western blotting. […] In any groups, total amount of p38MAPK (total sum of phosphorylated and non-phosphorylated p38MARK) was equal.

Another series deals with ERK1/2. Nature of the series: Tyrosine phosphorylation (activation) of ERK1/2 in HIV-1 infected M-MΦ by Western blotting. It is filed as cell-based, human. The settings on record: 30 μM, HIV-1BAL infected M-MΦ, compared with DMSO (FIG. 19(B)). As for the experimental part: as §7
In any groups, total amount of ERK1/2 (total sum of phosphorylated and non-phosphorylated p38MARK) was equal [refer to FIG. 19(B)].

In the case of “11-(1′-hydroxypropyl)-3-[2,6-dideoxy-3-C-methyl-α-L-ribo-hexopyranosyl]oxy]-5-[(3,4,6-trideoxy-3-(dimethylamino)-β-D-xylo-hexopyranosyl)oxy]-2,4,6,8,11,14-hexamethyl-10,13,15-tri-oxatricyclo[9.2.1.1.^9.6]-pentadecane-1-one [EM201]”, the “proliferation of virus in M-MΦ at 3 μM” value in series [1] (3 μM) was “inhibited almost completely the proliferation of virus”. For the same molecule, in series [1], the “suppression of viral generation (p24 in culture supernatant) in M-MΦ” value (shortened to “suppression of viral generation”) is on record as “almost no p24 was detected”, the “viral proliferation at 300 μM in M-MΦ” value is reported as “viral proliferation at 300 μM was observed” and the “concentration dependence of suppressive action on HIV-1BAL in M-MΦ” value (shortened to “concentration dependence”) was “concentration dependent manner”. For the same molecule, the “viral generation in GM-MΦ” value in series [2] is reported as “almost no viral generation was recognized”. Also, in series [3], the “cytopathic effect (MGC formation) in HIV-1 infected M-MΦ” value (from here on “cytopathic effect (MGC formation)”) was “no cytopathic effect such as MCG formation was observed”. In series [4], the “expression of tyrosine kinase Hck protein in HIV-1 infected M-MΦ” value (“expression … in HIV-1 infected M-MΦ” below) was “strongly suppressed”. The “tyrosine phosphorylation of p38MAPK” value in the series on p38MAPK is “significantly decreased”. Besides, the “tyrosine phosphorylation of ERK1/2” value in the series with ERK1/2 is listed as “promotion of tyrosine phosphorylation of ERK1/2 was recognized”.

As to `CC[C@H]1OC(=O)[C@H](C)[C@@H](O[C@H]2C[C@@](C)(OC)[C@@H](O)[C@H](C)O2)[C@H](C)[C@@H](O[C@@H]2O[C@H](C)C[C@H](N(C)C)[C@H]2O)[C@](C)(OC)C[C@@H](C)C(=O)[C@H](C)[C@@H](O)[C@]1(C)O` [CAM, Oxacyclotetradecane-2,10-dione,4-[(2,6-dideoxy-3-O-methyl-α-L-ribo-hexopyranosyl)oxy]-14-ethyl-12,13-dihydroxy-7-methoxy-3,5,7,9,11,13-hexamethyl-6-[[3,4,6-trideoxy-3-(dimethylamino)-β-D-xylo-hexopyranosyl]oxy], reference compound], in series [1], the “suppression of viral generation” value is “approximately ½”, the “viral proliferation at 300 μM in M-MΦ” value is reported as “viral proliferation at 300 μM was observed” and the “concentration dependence” value was “exhibited suppression of viral production depending upon drug concentration”. Further, the “viral generation in GM-MΦ” value in series [2] is reported as “almost no viral generation was recognized”. For the same molecule, the “cytopathic effect (MGC formation)” value in series [3] was “formation of MGC was slightly recognized”. The “expression … in HIV-1 infected M-MΦ” value in series [4] is “the suppression of tyrosine kinase Hck protein was observed, though not so strong”. Also, the “tyrosine phosphorylation of p38MAPK” value in the series on p38MAPK is given as “recognized to decrease, though not so strong”. Moreover, the “tyrosine phosphorylation of ERK1/2” value in the series on ERK1/2 is reported as “weakly recognized as same in the control group”.

For `CC[C@H]1OC(=O)[C@H](C)[C@@H](O[C@H]2C[C@@](C)(OC)[C@@H](O)[C@H](C)O2)[C@H](C)[C@@H](O[C@@H]2O[C@H](C)C[C@H](N(C)C)[C@H]2O)[C@@]2(C)C[C@@H](C)[C@@]3(O[C@@]1(C)[C@H](O)[C@H]3C)O2` [EM202, 6,9,12-Anhydroerythromycin A], in series [1], the “suppression of viral generation” value is listed as “suppression of viral generation was recognized, though not so strong”; the “viral proliferation at 300 μM in M-MΦ” value is listed as “viral proliferation at 300 μM was observed”; the “concentration dependence” value was “exhibited suppression of viral production depending upon drug concentration”. In series [2], the “viral generation in GM-MΦ” value was “almost no viral generation was recognized”. Also, in series [3], the “cytopathic effect (MGC formation)” value was “formation of MGC was slightly recognized”. Further, the “expression … in HIV-1 infected M-MΦ” value in series [4] is listed as “the suppression of tyrosine kinase Hck protein was observed, though not so strong”. In addition, in the series with p38MAPK, the “tyrosine phosphorylation of p38MAPK” value was “recognized to decrease, though not so strong”. Moreover, the “tyrosine phosphorylation of ERK1/2” value in the series with ERK1/2 was “weakly recognized as same in the control group”.

Turning to “Hck-NS: Phosphorothioate-modified non-sense oligonucleotide probe, 5′-CCATATTTCCCGCTCOCGTG-3′ (SEQ ID NO: 7) (CCATATTTCCCGCTCGCGTG; all phosphorothioate, sugars by position and methylation of C not given here)”, in series [1], the “p24 protein in culture supernatant of oligonucleotide pretreated M-MΦ” value is reported as “time-dependent increase in p24 protein was recognized”. Also, in series [4], the “expression of tyrosine kinase Hck protein in oligonucleotide pretreated M-MΦ after infection” value was “no suppression of expression of tyrosine kinase Hck protein was recognized” and the “expression of tyrosine kinase Hck protein in oligonucleotide treated M-MΦ before infection” value is “suppression of expression of tyrosine kinase Hck protein was recognized”.

With “Hck-S: Phosphorothioate-modified sense oligonucleotide probe of Hck, 5′-GCCAGOATOGGGTCGATCAA-3′ (SEQ ID NO: 6)”, the “p24 protein in culture supernatant of oligonucleotide pretreated M-MΦ” value in series [1] was “time-dependent increase in p24 protein was recognized”. In series [4], the “expression of tyrosine kinase Hck protein in oligonucleotide pretreated M-MΦ after infection” value is recorded as “no suppression of expression of tyrosine kinase Hck protein was recognized” and the “expression of tyrosine kinase Hck protein in oligonucleotide treated M-MΦ before infection” value is recorded as “suppression of expression of tyrosine kinase Hck protein was recognized”.
